# Reference: patent US20020052000A1, “Diagnostics for and mediators of inflammatory disorders” (priority 1996, published 2002)
# How the values were obtained:
# [1] = system: ICAM-1; assay: Cell surface ICAM-1 expression on HAEC by ELISA; format: cell-based, human; settings: for induction of cell surface ICAM expression: HAEC exposed 16 hr
# Procedure: In a small scale synthesis reaction, sLO converted 250 uM linoleic acid (LA) into 13-HpODE within the first hour of room temperature incubation. During the subsequent 3 days incubation, 13-HpODE presumably oxidatively modified the enzyme and generating epitopes on the enzyme which can elicit biological s activity such as the expression of cell surface ICAM on HAEC as shown in ELISA assay depicted in FIG. 11. […] In the large scale synthesis reaction, only in the presence of the 13-HpODE generating system did the sLO become active as shown in FIG. 12. sLO negative control represented the sLO enzyme incubated with buffer alone for the extended period of time. We have confirmed the oxSLO synthesized by either method are functionally and immunologically identical. Furthermore, we have determined that formation of a biologically activity is protein specific. Reaction of rabbit serum albumin using the large or small scale oxykine reaction generates immunoreactive but not biologically active products.
# (§1) It was investigated whether the oxidative modification of rabbit serum albumin RSA by linoleic hydroperoxide alters the structural or biological property of an element (peptide or nonpeptide) in this material, conferring upon it a biological function as a vascular endothelial cell inflammatory signal. Using oxidatively modified RSA (oxRSA) prepared as described in Example 1, cultured human aortic endothelial cells were exposed for 12 hours with a range of oxRSA concentrations from 1 to 100 nM (nanomolar), and assayed for the cell surface expression of the inducible adhesion molecules VCAM-1, ICAM-1 or the constituitively expressed adhesion molecule ICAM-2 by ELISA assay. […] Furthermore, limulus assay for LPS in the oxRSA preparation was below detection. Constituitively expressed ICAM-2 was unaffected.
# [2] = system: VCAM-1; settings: cited from earlier work; for induction of cell-surface expression of VCAM-1: human aortic endothelial cells
# [3] = system: ICAM-1; settings: human aortic endothelial cells; cited from earlier work
# [4] = system: E-selectin; settings: human aortic endothelial cells; cited from earlier work
# [5] = system: anti-LOOH/RSA antibody; assay: ELISA recognition of modified proteins/peptides by anti-LOOH/RSA antibody; format: binding, rabbit
# Procedure: Using ELISA, it was investigated whether the LOOH/RSA antibody recognized the LOOH/modified protein and unmodified protein. Unmodified IgG-free RSA was used as control. incubation at 37° C., wells were washed with PBS three times. Goat anti-rabbit IgG conjugated with alkaline phosphatase was diluted to 1:38,000 and added. After 2 hrs incubation at 37 °C, wells were washed again and p-nitrophenolphosphate was added. Color development was determined by a plate reader (Anthos II).
# Microtiter wells were coated with increasing concentrations of unmodified, or modified peptide. After blocking wells with non-fat milk powder, 100 μl of 1:250 dilution of anti-LOOH/RSA antibody was added to each well. After wash, anti-rabbit IgG conjugated with alkaline phosphatase was added to each well. After adding substrate p-nitrophenyl phosphate, the OD was measured at 405 nm using a microplate reader. Values represent averages of a triplicate set of optical density readings of wells from one of at least 2 separate trials. 20 Western blot analysis of the aldehyde- and LOOH-modified peptide confirmed that none of the aldehyde-modified synthetic proteins were recognized to any significant extent, whereas LOOH-modified peptide was recognized by the antibody.
# [6] = system: VCAM-1; assay: Cell surface VCAM-1 expression on HAEC by ELISA; format: cell-based, human
# Description: (§2) The ELISA data is supported by the Northern Blot data as illustrated in FIG. 15. […] Within 2-6 hr of stimulation, the mRNA level of the indicated genes all reached a steady state.
# as §1
# [7] = system: ICAM-2; assay: Cell surface ICAM-2 expression on HAEC by ELISA; format: cell-based, human; settings: 12 hours
# Procedure: as §1
# [8] = system: VCAM-1 mRNA; assay: Northern blot VCAM-1 mRNA accumulation in HAEC; format: cell-based, human
# Procedure: as §2
# (§3) It was next investigated whether the induction of VCAM-1 and ICAM-1 cell surface expression by ox-RSA is due at least in part to changes in mRNA accumulation. Northern filter analysis was performed from RNA isolated from HAEC exposed for 4 hours With either TNFa (100 U/ml) or oxRSA (25 nM). Similar to that observed at the protein level, VCAM-mRNA levels were induced by ox-RSA to levels approximately 30-40% observed for TNFa.
# [9] = system: ICAM-1 mRNA; assay: Northern blot ICAM-1 mRNA accumulation in HAEC; format: cell-based, human
# Procedure: as §2, §3
# [10] = system: NF-kB like DNA binding activity; assay: Gel mobility shift assay, NF-kB-like binding sites of VCAM-1 promoter; format: cell-based, human; settings: HAEC, two hours; TNFa 100 U/ml or oxRSA 25 nM
# Procedure: To determine whether oxRSA modulated nuclear regulatory events associated with redox sensitive VCAM-1 gene expression, cultured human aortic endothelial cells were exposed or not (CTL) for two hours to TNFa (100 U/ml) or 25 nM of the oxykine RSA-LOOH (oxRSA), nuclear extracts prepared and gel mobility shift assays performed using 32P-labeled kL0kR, the tandem NF-kB-like binding sites of the human VCAM-1 promoter. Appropriate cold competitor and supershift controls using anti-p50 and anti-p65 antisera (R&D Systems) were performed to establish the DNA sequence binding specificity of the NF-kB complex band. Both TNF and oxRSA inducted NF-kB like DNA binding activity.
# [11] = system: MCP-1 mRNA; assay: Northern blot MCP-1 mRNA accumulation in HAEC; format: cell-based, human
# Description: as §2
# [12] = VCAM-1 and ICAM-1 induction, polymyxin B 10 ug/ml
molecule,measurement,setting,value
O=C(O)CN(CCN(CC(=O)O)CC(=O)O)CC(=O)O [EDTA],effect of addition on ICAM-1 induction by the oxykine,[1],no effect
"CCCCC/C=C\C/C=C\CCCCCCCC(=O)O [LA, linoleic acid]",induction of cell surface ICAM expression,[1],did not become active
same,induction of cell-surface expression of VCAM-1,[2],induce
same,induction of cell-surface expression of ICAM-1,[3],not
same,induction of cell-surface expression of E-selectin,[4],not
"S=C(S)N1CCCC1 [PDTC, pyrrolidine dithiocarbamate]",effect on induction of VCAM-1 by PUFAs and their fatty acid hydroperoxides,[2],suppressed
Cc1c(C)c2c(c(C)c1O)CCC(C)(C(=O)O)O2 (centres unmarked) [Trolox],effect of addition on ICAM-1 induction by the oxykine,[1],no effect
CCCCC/C=C\C/C=C\C/C=C\C/C=C\CCCC(=O)O [arachidonic acid],induction of cell-surface expression of VCAM-1,[2],induce
same,induction of cell-surface expression of ICAM-1,[3],not
same,induction of cell-surface expression of E-selectin,[4],not
CCCCCCCC/C=C\CCCCCCCC(=O)O [oleic acid],induction of cell-surface expression of VCAM-1,[2],do not induce
same,induction of cell-surface expression of ICAM-1,[3],do not induce
same,induction of cell-surface expression of E-selectin,[4],do not induce
CC(C)(Sc1cc(C(C)(C)C)c(O)c(C(C)(C)C)c1)Sc1cc(C(C)(C)C)c(O)c(C(C)(C)C)c1 [probucol],effect of addition on ICAM-1 induction by the oxykine,[1],no effect
CCCCCCCCCCCCCCCCCC(=O)O [stearic acid],induction of cell-surface expression of VCAM-1,[2],do not induce
same,induction of cell-surface expression of ICAM-1,[3],do not induce
same,induction of cell-surface expression of E-selectin,[4],do not induce
RSA: unmodified IgG-free rabbit serum albumin used as control,recognition by the antibody in ELISA,[5],barely recognized
YVTKSYNETKIKFDKYKAKSHEDEL [Native peptide],recognition by the antibody in ELISA,[5],failed to recognize
linoleyl 194 hydroperoxide,induction of cell-surface expression of VCAM-1,[2],induce
same,induction of cell-surface expression of ICAM-1,[3],not
same,induction of cell-surface expression of E-selectin,[4],not
"oxRSA: rabbit serum albumin oxidatively modified by linoleic hydroperoxide (13-HPODE), Example 1",concentration corresponding to least amount recognized,[5],< 2 nM
same,least amount recognized by the antibody,"[5]; antibody 1:250, above control protein",10 ng
same,induction of ICAM-1 as percent of maximal TNF-a induced signal,"[1]; HAEC, 12 hours, 1 to 100 nM",80%
same,EC50,"[1]; HAEC, 12 hours, read-out: approximate EC50 for ICAM-1 induction",10 to 15 nM
same,induction of VCAM-1 as percent of maximal TNF-a induced signal,"[6]; HAEC, 12 hours, 1 to 100 nM",40%
same,EC50,"[6]; HAEC, 12 hours, read-out: approximate EC50 for VCAM-1 induction",10 to 15 nM
same,effect on constitutively expressed ICAM-2,[7],unaffected
same,VCAM-mRNA level relative to that observed for TNFa,"[8]; 4 hours, 25 nM, TNFa 100 U/ml",30-40%
same,ICAM-1 mRNA induction,"[9]; 4 hours, 25 nM",induced
same,NF-kB like DNA binding activity,[10],inducted
polymyxin B,effect on LPS induction,[6]; [12],fully inhibited
same,effect on oxRSA activation,[6]; [12],no effect
"soybean lipoxygenase (protein, UniProt P08170 1-839, looked up, unmodified soybean lipoxygenase, negative control) Seed linoleate …: MFSAGHKIKGTVVLMPKNELEVNPDGSAVDNLNAFLGRSVSLQLISATKADAHGKGKVGKDTFLEGINTSLPTLGAGESAFNIHFEWDGSMGIPGAFYIKNYMQVEFFLKSLTLEAISNQGTIRFVCNSWVYNTKLYKSVRIFFANHTYVPSETPAPLVSYREEELKSLRGNGTGERKEYDRIYDYDVYNDLGNPDKSEKLARPVLGGSSTFPYPRRGRTGRGPTVTDPNTEKQGEVFYVPRDENLGHLKSKDALEIGTKSLSQIVQPAFESAFDLKSTPIEFHSFQDVHDLYEGGIKLPRDVISTIIPLPVIKELYRTDGQHILKFPQPHVVQVSQSAWMTDEEFAREMIAGVNPCVIRGLEEFPPKSNLDPAIYGDQSSKITADSLDLDGYTMDEALGSRRLFMLDYHDIFMPYVRQINQLNSAKTYATRTILFLREDGTLKPVAIELSLPHSAGDLSAAVSQVVLPAKEGVESTIWLLAKAYVIVNDSCYHQLMSHWLNTHAAMEPFVIATHRHLSVLHPIYKLLTPHYRNNMNINALARQSLINANGIIETTFLPSKYSVEMSSAVYKNWVFTDQALPADLIKRGVAIKDPSTPHGVRLLIEDYPYAADGLEIWAAIKTWVQEYVPLYYARDDDVKNDSELQHWWKEAVEKGHGDLKDKPWWPKLQTLEDLVEVCLIIIWIASALHAAVNFGQYPYGGLIMNRPTASRRLLPEKGTPEYEEMINNHEKAYLRTITSKLPTLISLSVIEILSTHASDEVYLGQRDNPHWTSDSKALQAFQKFGNKLKEIEEKLVRRNNDPSLQGNRLGPVQLPYTLLYPSSEEGLTFRGIPNSISI",induction of cell surface ICAM expression,[1],did not become active
same,induction of cell surface ICAM expression,[1]; listed as unmodified sLO,failed to activate
same,VCAM-1 mRNA,[8]; 0.008 ug/ml,−0.14 arbitrary units
same,VCAM-1 mRNA,[8]; 0.08 ug/ml,0.12 arbitrary units
same,VCAM-1 mRNA,[8]; 0.8 ug/ml,3.36 arbitrary units
same,VCAM mRNA accumulation,"[8]; Northern blot, 4 hr",not
same,ICAM-1 mRNA,[9]; 0.008 ug/ml,−0.51 arbitrary units
same,ICAM-1 mRNA,[9]; 0.08 ug/ml,−0.09 arbitrary units
same,ICAM-1 mRNA,[9]; 0.8 ug/ml,3.14 arbitrary units
same,MCP-1 mRNA,[11]; 0.008 ug/ml,1.12 arbitrary units
same,MCP-1 mRNA,[11]; 0.08 ug/ml,3.1 arbitrary units
same,MCP-1 mRNA,[11]; 0.8 ug/ml,12.34 arbitrary units
same,MCP-1 mRNA accumulation,[11]; Northern blot,not
